ChEMBL document CHEMBL5291721, “A preclinical secondary pharmacology resource illuminates target-adverse drug reaction associations of marketed drugs” (Nat Commun, 2023)

Experiments:
[1] = target: 5-hydroxytryptamine receptor 2B (Homo sapiens, UniProt P41595)
Progesterone receptor = target: T1, Progesterone receptor (Homo sapiens, UniProt P06401)
T1 sequence (P06401 whole entry): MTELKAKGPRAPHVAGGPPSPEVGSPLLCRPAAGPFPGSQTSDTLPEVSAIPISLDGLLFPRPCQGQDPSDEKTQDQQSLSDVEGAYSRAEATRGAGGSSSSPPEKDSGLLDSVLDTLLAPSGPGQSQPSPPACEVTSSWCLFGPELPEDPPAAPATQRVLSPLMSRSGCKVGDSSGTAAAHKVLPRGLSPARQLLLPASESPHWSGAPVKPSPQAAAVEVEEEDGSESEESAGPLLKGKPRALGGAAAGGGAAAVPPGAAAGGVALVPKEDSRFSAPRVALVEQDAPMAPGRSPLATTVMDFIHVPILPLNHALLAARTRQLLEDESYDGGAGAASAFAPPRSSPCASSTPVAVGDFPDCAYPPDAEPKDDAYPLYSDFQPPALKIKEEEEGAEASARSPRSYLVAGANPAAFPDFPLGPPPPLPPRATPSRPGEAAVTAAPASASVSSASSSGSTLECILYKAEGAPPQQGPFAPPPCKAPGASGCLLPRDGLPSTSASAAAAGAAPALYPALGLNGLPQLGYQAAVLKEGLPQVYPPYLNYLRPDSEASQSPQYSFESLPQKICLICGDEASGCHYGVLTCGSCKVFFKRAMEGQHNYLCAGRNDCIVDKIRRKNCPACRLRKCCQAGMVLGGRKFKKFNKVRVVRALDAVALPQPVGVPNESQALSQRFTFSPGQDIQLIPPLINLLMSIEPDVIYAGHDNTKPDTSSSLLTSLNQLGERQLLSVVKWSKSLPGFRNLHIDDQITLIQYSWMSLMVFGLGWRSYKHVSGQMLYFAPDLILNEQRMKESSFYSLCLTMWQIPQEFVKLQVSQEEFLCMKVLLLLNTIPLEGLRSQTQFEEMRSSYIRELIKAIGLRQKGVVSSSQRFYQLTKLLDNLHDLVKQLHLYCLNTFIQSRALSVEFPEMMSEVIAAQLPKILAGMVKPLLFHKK

[2] = target: T2, Endothelin receptor type B (Homo sapiens, UniProt P24530)
T2 sequence (P24530 whole entry): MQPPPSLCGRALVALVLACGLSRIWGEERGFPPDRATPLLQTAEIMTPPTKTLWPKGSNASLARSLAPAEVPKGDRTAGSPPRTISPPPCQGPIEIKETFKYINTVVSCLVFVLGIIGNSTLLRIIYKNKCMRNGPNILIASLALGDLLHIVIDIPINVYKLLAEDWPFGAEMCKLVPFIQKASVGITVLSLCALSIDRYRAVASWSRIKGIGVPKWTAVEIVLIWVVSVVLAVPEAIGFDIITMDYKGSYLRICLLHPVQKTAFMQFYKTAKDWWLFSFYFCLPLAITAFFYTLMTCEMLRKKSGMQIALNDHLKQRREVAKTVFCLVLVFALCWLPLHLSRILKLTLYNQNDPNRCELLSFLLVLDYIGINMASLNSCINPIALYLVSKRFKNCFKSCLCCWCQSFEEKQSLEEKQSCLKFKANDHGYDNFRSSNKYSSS

Androgen receptor = target: T3, Androgen receptor (Rattus norvegicus, UniProt P15207)
T3 sequence (P15207 whole entry): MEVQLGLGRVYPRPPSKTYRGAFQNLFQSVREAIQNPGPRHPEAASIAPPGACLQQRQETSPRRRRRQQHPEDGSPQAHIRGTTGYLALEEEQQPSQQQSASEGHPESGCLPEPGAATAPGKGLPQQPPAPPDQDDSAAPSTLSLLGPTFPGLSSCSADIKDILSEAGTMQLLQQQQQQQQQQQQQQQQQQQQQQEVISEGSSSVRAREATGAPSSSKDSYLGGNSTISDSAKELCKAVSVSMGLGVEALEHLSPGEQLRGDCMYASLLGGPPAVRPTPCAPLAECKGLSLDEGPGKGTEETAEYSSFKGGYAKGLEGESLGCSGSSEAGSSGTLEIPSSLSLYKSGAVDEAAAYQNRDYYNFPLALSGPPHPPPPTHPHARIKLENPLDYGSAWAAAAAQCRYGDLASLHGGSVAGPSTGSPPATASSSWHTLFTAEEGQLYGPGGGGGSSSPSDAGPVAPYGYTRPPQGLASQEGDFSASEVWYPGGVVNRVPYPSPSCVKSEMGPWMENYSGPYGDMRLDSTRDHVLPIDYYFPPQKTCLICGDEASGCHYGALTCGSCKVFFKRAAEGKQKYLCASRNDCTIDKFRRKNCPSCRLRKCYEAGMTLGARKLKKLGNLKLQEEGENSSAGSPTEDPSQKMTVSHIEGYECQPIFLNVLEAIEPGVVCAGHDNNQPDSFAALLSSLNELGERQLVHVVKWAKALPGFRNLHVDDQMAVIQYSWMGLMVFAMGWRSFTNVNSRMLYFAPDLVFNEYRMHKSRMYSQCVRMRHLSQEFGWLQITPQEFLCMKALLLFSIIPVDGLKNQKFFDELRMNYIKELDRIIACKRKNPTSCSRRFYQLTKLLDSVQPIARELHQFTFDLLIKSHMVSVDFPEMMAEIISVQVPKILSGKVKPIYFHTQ

D(1A) dopamine receptor = D(1A) dopamine receptor (Homo sapiens, UniProt P21728)
Chain of D(1A) dopamine receptor (P21728 whole entry): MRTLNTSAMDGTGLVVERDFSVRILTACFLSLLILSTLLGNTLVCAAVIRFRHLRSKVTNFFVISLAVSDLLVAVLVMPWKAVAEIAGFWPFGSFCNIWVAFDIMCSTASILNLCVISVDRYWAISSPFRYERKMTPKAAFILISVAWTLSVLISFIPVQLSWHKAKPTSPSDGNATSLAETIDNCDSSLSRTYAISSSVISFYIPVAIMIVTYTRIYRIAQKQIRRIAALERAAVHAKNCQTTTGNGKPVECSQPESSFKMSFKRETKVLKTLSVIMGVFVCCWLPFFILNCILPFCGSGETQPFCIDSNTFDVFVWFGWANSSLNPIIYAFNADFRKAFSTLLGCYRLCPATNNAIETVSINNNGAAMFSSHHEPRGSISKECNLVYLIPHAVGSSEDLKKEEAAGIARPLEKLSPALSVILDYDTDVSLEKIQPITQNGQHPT

[3] = target: T4, Corticotropin-releasing factor receptor 1 (Homo sapiens, UniProt P34998)
T4 sequence (P34998 whole entry): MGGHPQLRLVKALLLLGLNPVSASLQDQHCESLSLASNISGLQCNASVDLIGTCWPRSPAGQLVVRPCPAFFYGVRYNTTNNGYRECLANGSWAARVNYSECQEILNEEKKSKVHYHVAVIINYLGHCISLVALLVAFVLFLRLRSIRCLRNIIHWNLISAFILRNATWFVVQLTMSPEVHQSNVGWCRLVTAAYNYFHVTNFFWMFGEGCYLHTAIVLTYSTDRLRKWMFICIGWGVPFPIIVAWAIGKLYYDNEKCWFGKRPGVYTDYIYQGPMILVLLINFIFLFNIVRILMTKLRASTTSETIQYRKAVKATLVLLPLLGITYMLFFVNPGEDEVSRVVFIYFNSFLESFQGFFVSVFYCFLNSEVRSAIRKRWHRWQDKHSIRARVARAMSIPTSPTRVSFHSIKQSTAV

[4] = target: Voltage-dependent N-type calcium channel subunit alpha-1B (Rattus norvegicus, UniProt Q02294); format: functional
Chain of Voltage-dependent N-type calcium channel subunit alpha-1B (Q02294 whole entry): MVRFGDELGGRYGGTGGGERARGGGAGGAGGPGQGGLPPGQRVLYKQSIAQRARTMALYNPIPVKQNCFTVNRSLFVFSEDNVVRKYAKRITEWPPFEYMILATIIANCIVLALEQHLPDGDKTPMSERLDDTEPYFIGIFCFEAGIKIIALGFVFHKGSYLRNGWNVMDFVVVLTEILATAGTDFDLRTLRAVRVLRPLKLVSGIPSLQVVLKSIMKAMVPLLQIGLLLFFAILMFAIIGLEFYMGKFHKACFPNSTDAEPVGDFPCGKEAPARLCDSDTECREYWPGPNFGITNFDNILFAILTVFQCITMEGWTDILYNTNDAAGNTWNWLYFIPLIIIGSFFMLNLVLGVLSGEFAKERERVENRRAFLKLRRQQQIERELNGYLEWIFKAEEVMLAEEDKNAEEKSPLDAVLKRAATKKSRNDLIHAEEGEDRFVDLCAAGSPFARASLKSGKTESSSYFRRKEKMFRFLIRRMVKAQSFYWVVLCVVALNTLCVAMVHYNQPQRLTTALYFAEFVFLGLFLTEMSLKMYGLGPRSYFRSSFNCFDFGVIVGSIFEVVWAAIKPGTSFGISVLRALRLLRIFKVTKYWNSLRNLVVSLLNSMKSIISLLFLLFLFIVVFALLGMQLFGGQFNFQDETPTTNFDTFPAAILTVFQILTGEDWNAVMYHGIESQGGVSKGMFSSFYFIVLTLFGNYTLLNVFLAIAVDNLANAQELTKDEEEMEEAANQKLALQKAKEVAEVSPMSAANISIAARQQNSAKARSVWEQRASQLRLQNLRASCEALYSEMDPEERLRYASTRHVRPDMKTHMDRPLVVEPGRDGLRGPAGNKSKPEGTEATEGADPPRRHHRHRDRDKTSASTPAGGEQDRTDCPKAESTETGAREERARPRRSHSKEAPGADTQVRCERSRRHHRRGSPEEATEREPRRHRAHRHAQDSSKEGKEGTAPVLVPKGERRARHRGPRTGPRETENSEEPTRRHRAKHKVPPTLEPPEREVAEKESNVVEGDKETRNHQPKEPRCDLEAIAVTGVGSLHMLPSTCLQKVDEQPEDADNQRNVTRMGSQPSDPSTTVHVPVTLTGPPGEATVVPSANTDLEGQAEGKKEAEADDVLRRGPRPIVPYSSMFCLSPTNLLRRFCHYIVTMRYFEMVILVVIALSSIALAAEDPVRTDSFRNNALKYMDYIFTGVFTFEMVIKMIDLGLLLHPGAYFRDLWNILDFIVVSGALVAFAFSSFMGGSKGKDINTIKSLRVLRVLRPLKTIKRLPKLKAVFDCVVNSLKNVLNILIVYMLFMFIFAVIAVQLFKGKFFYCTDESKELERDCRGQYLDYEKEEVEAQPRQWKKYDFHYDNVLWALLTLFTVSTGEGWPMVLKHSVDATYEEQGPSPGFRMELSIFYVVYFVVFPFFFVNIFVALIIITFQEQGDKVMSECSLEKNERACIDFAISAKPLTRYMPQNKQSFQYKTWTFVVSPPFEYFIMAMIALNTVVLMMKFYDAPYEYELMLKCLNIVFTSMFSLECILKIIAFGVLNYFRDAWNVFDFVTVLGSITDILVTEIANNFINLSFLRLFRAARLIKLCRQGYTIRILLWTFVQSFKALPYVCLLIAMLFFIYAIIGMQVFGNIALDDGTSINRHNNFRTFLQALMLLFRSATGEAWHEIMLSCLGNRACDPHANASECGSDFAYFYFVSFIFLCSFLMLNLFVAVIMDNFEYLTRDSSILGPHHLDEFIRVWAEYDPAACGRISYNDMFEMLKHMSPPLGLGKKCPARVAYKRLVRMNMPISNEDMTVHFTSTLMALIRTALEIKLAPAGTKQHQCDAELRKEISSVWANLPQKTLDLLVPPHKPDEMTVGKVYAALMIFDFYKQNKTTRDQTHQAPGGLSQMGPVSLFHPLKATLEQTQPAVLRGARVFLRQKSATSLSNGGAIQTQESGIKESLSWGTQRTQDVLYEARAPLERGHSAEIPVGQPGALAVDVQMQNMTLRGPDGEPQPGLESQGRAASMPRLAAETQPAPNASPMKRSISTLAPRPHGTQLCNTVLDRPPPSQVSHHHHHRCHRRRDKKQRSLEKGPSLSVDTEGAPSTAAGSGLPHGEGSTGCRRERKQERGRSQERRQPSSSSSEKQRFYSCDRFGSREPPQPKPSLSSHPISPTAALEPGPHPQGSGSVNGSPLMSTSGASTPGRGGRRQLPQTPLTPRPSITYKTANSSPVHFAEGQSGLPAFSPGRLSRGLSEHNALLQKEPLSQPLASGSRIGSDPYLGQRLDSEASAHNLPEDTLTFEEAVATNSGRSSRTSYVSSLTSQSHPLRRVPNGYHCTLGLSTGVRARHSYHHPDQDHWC

[5] = target: Neurotensin receptor type 1 (Homo sapiens, UniProt P30989)
Chain of Neurotensin receptor type 1 (P30989 whole entry): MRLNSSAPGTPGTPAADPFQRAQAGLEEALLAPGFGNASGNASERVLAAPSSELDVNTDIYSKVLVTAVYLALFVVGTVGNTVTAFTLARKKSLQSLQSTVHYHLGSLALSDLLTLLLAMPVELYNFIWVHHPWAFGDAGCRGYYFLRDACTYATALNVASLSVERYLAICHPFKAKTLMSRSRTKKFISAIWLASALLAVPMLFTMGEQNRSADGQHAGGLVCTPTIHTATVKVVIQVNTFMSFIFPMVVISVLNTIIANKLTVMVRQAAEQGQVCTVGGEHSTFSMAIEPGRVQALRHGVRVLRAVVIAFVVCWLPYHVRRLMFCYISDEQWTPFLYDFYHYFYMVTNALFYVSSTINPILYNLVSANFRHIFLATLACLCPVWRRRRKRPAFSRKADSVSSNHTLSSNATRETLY
Further: assay procedure not described here.

Chain of 5-hydroxytryptamine receptor 2B (P41595 whole entry): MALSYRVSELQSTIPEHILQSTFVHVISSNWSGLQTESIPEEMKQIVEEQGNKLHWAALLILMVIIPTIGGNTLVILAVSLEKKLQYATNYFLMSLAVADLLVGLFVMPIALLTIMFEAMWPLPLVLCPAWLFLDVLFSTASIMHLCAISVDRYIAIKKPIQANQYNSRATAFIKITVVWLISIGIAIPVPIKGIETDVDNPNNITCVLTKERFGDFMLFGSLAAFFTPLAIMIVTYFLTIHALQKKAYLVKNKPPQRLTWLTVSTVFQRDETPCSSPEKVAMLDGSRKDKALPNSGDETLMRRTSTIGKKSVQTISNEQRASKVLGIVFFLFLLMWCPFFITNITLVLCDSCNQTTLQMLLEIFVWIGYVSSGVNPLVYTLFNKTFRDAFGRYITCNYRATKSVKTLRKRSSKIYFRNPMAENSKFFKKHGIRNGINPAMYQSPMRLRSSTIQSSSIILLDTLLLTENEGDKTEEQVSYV

| SMILES | AC50 [1] [µM] | AC50 (Progesterone receptor) [µM] | AC50 [2] [µM] | AC50 (Androgen receptor) [µM] | AC50 (D(1A) dopamine receptor) [µM] | AC50 [3] [µM] | AC50 [4] [µM] | AC50 [5] [µM] |
| --- | --- | --- | --- | --- | --- | --- | --- | --- |
| O=C1CN=C(c2ccccc2Cl)c2cc([N+](=O)[O-])ccc2N1 [CLONAZEPAM] | > 10 | > 30 | > 30 | > 30 | > 10 | > 30 | > 10 | > 30 |
| CCN(CC)C(C)C(=O)c1ccccc1 (stereo not drawn) [DIETHYLPROPION] | > 10 | 0.22 | > 30 | > 30 | > 10 | > 30 | > 10 | > 30 |
| Cc1ccc(-c2ncc(Cl)cc2-c2ccc(S(C)(=O)=O)cc2)cn1 [ETORICOXIB] | > 10 | > 30 | > 30 | > 30 | > 10 | > 30 | > 10 | > 30 |
| CCOC(=O)C1=C(C)NC(C)=C(C(=O)OC)C1c1cccc(Cl)c1Cl (stereo not drawn) [FELODIPINE] | > 10 | 2.6 | > 30 | – | > 10 | > 30 | > 10 | > 30 |
| CN1C(=O)CN=C(c2ccccc2F)c2cc([N+](=O)[O-])ccc21 [FLUNITRAZEPAM] | > 10 | > 10 | > 30 | > 30 | > 10 | > 30 | > 10 | > 30 |
| COc1ccc2c3c1O[C@H]1C(=O)CC[C@H]4[C@@H](C2)N(C)CC[C@]314 [HYDROCODONE] | > 10 | > 30 | > 30 | – | > 10 | > 30 | > 10 | > 30 |
| CC(C)(N)Cc1ccccc1 [PHENTERMINE] | – | > 30 | > 30 | > 30 | > 10 | > 30 | > 10 | > 30 |
